In article PMC9867241, “Antioxidant and Cytotoxic Activity of New Polyphenolic Derivatives of Quinazolin-4(3H)-one: Synthesis and In Vitro Activities Evaluation” (Pharmaceutics, 2022):
≈ marks a conversion by molar mass, not a printed value.

What was measured:
[1] = ABTS˙+ radical scavenging assay
Method: (§1) The stock solutions (1 mg/mL) of the tested compounds and the controls were obtained, by dissolving the substances in dimethyl sulfoxide (DMSO). Using Jasco V-530, an UV-VIS spectrophotometer (Jasco International Co., Ltd., Tokyo, Japan), we performed the colorimetric determinations in low-volume single-use 10 mm width cuvettes.
(§2) The assays were performed in triplicate and the results are presented as averages for each assay.

[2] = DPPH˙ radical scavenging assay
Method: as §1, §2
The DPPH˙ radical scavenging assay is based on the transfer of one hydrogen from the analyzed compound to the violet stable free radical DPPH˙ (2,2-diphenyl-1-picrylhydrazyl), as we convert it into a yellow compound. The absorbance of the reagent mixed with samples presented inversely proportional values to the amount of DPPH˙ neutralized. The absorbance of the reagent was measured at λ = 517 nm, according to our previous reports. The assay was made in the presence of various concentrations of samples. The used protocol is based on the report of Brand-Williams et al..

[3] = test system: A549 (lung adenocarcinoma) cells; assay: Cytotoxicity, Alamar blue assay, A549 cells; assay type: cell-based; conditions: Homo sapiens, 24 h exposure
Description: (§3) Normal human foreskin (BJ) fibroblasts and two types of cancer cells, namely A549 (lung adenocarcinoma) and LNCaP (prostate carcinoma) purchased from American Type Culture Collection (Manassas, VA, USA), were used in the experiments. Each cell line was maintained in a different culture medium, depending on the metabolic necessities of the cells. BJ cells were maintained in Dulbecco’s modified Eagle’s medium (DMEM) with low glucose. A549 cells were maintained in DMEM with high glucose […], while LNCaP cells were grown in Roswell Park Memorial Institute (RPMI) 1640 medium with high glucose (5 g/L). All media used were supplemented with 10% fetal bovine serum (FBS) and were refreshed every two days. Cells were used in experiments or subcultured when they reached 70–80% confluence.
(§4) In 100 µL in 96-well plates, a number of 30,000 LNCaP cells, 15,000 A549 cells, and 7500 normal (BJ) cells were seeded. Because the cells have different sizes and volumes, the purpose of the different seedings was to achieve a confluency of 70–80% after 24 h. All types of cells were further exposed to the synthesized compounds (5a–d and 6a–d) for 24 h, at a concentration ranging from 12.5 to 100 µg/mL. Post-exposure, the media were removed, and the cells were washed with phosphate buffer saline (PBS). Their viability was evaluated using Alamar blue (AB) assay as previously described. Briefly, the cells were incubated with a 200 µM resazurin solution for 4 h. Using a Synergy 2 multi-mode microplate reader, we measured the fluorescence. The measurement was performed at λexcitation = 530/25 nm; λemission = 590/35 nm. We conducted the experiments using three biological replicates, each one including 6 technical replicates. As negative controls (NC), cells exposed to culture medium containing 0.2% DMSO were used. Compared to the NC (100%), the results were expressed as relative values. We used IC50 values for the potency evaluation, and calculated them for each cell line, using the dose-effect curves obtained by fitting the experimental data with a 4-parameter logistic curve.
(§5) Mean values ± standard deviation (SD) values of at least three biological replicates were used to calculate experimental data. One-way analysis of variance (ANOVA) with a post hoc Holm–Sidak test was used to statistically examine the data. Using SigmaPlot 11.0 software (Systat, Software Inc., Chicago, IL, USA), we performed the graphical display and data analysis. From a statistical point of view, the results were considered different, at values of p < 0.05.

[4] = test system: LNCaP (prostate carcinoma) cells; assay: Cytotoxicity, Alamar blue assay, LNCaP cells; assay type: cell-based; conditions: Homo sapiens, 24 h exposure
Description: as §3, §4, §5

[5] = test system: normal human foreskin fibroblasts (BJ); assay: Cytotoxicity, Alamar blue assay, BJ cells; assay type: cell-based; conditions: Homo sapiens, Fibroblast; 24 h exposure, Alamar blue
Description: as §3, §4, §5

[6] = Fe^2+ chelation assay (ferrozine competition)
Method: In the protocol used for evaluating the Fe^2+ chelating ability of the compounds, the absorbances of the solutions were determined at λ = 562 nm, against a blank sample. The method was adapted from the initial report of Benzie and Strain et al., which was previously reported by our group. Using Equation (5), we calculated the iron chelation capacities of the 5a–d and 6a–d compounds:(5) iron chelation (%)=control absorbance−sample absorbance/control absorbance×100
The chelating capacity of the tested compounds of Fe^2+ was evaluated based on their competition for Fe^2+ with ferrozine.

[7] = Cu^2+ chelation assay (murexide competition)
Description: With murexide as a chromophoric chelator, we performed the protocol followed for the evaluation of Cu^2+ chelating activities of the compounds using an adaptation of the method presented by Cesari et al. and Wu et al.. Using Equation (6), we calculated the copper chelation capacities of the 5a–d and 6a–d compounds:(6) copper chelation (%)=(A485/A520)control−(A485/A520)sample/(A485/A520)control×100
The evaluation of the Cu^2+ chelation activity of compounds was made based on the competition for Cu^2+ with murexide. The chelating activity of compounds for the cupric ions found in the current assay is significant for the pyrogallol derivatives, being quite close to EDTA-Na2.

[8] = NO˙ radical scavenging assay (Griess reaction); conditions: PBS pH 7.4, sodium nitroprusside
Method: The scavenging of the NO˙ radical was performed by applying previously reported protocols. The in vitro protocol describes the decomposition of sodium nitroprusside in phosphate buffered saline (PBS) at pH = 7.4. The NO˙ radicals would be involved in a Griess reaction if they were not captured by the tested compounds. This reaction results from the formation of an azo dye, with maximum absorption at 546 nm. This azo dye is formed from sulfanilic acid and naphthyl ethylenediamine dichloride.

Row | SMILES | IC50 [1] [µM] | % of ABTS˙^+ Scavenging ([1]; 0.83 µg/mL) [%] | % of ABTS˙^+ Scavenging ([1]; 1.67 µg/mL) [%] | % of ABTS˙^+ Scavenging ([1]; 3.33 µg/mL) [%] | % of ABTS˙^+ Scavenging ([1]; 4.99 µg/mL) | % of ABTS˙^+ Scavenging ([1]; 6.66 µg/mL) | % of ABTS˙^+ Scavenging ([1]; 9.99 µg/mL) | % of ABTS˙^+ Scavenging ([1]; 13.32 µg/mL) | IC50 [2] [µM] | IC50 (DPPH˙ scavenging) [2] [µg/mL] | % of DPPH˙ Scavenging ([2]; 1.25 µg/mL) [%] | % of DPPH˙ Scavenging ([2]; 2.5 µg/mL) [%] | % of DPPH˙ Scavenging ([2]; 3.75 µg/mL) [%] | % of DPPH˙ Scavenging ([2]; 5 µg/mL) [%] | % of DPPH˙ Scavenging ([2]; 7.5 µg/mL) [%] | % of DPPH˙ Scavenging ([2]; 10 µg/mL) [%] | % of DPPH˙ Scavenging ([2]; 12.5 µg/mL) | % of DPPH˙ Scavenging ([2]; 15 µg/mL) | also measured
1 | O=C1O[C@H]([C@@H](O)CO)C(O)=C1O [Ascorbic acid, reference compound] | 11.4 | 60.97 | 73.24 | 87.73 | + (+ represents more than 95%) | + (+ represents more than 95%) | + (+ represents more than 95%) | + (+ represents more than 95%) | 16.1 | 2.83 (≈ 16.1 µM) | 35.11 | 47.45 | 55.71 | 64.21 | 79.16 | 94.39 | + (+ represents more than 95%) | + (+ represents more than 95%) | –
2 | COc1cccc2c1C(=O)c1c(O)c3c(c(O)c1C2=O)C[C@@](O)(C(=O)CO)C[C@@H]3O[C@H]1C[C@H](N)[C@H](O)[C@H](C)O1 [Doxorubicin, reference compound] | – | – | – | – | – | – | – | – | – | – | – | – | – | – | – | – | – | – | IC50 [3]: 0.54 µg/mL; IC50 [4]: 0.74 µg/mL; IC50 [5]: > 7.5 µg/mL
3 | O=C([O-])CN(CCN(CC(=O)[O-])CC(=O)O)CC(=O)O.[Na+].[Na+] [EDTA-Na2, reference compound] | – | – | – | – | – | – | – | – | – | – | – | – | – | – | – | – | – | – | Ferrous ions Chelation Capacity (%) ([6]; 17.70 µg/mL): 1.32%; Ferrous ions Chelation Capacity (%) ([6]; 20.59 µg/mL): 20.59%; Ferrous ions Chelation Capacity (%) ([6]; 29.41 µg/mL): 42.89%; Ferrous ions Chelation Capacity (%) ([6]; 44.11 µg/mL): 95.10%; Ferrous ions Chelation Capacity (%) ([6]; 58.82 µg/mL): + (+ represents more than 95%); Ferrous ions Chelation Capacity (%) ([6]; 88.23 µg/mL): + (+ represents more than 95%); Ferrous ions Chelation Capacity (%) ([6]; 117.64 µg/mL): + (+ represents more than 95%); Ferrous ions Chelation Capacity (%) ([6]; 257.46 µg/mL): + (+ represents more than 95%); Ferrous ions Chelation Capacity (%) ([6]; 343.28 µg/mL): + (+ represents more than 95%); Cupric ions Chelation Capacity (%) ([7]; 3.36 µg/mL): 10.39%; Cupric ions Chelation Capacity (%) ([7]; 8.40 µg/mL): 22.68%; Cupric ions Chelation Capacity (%) ([7]; 16.80 µg/mL): 44.51%
4 | O=C(O)c1cc(O)ccc1O [Gentisic acid, reference compound] | – | – | – | – | – | – | – | – | – | – | – | – | – | – | – | – | – | – | % of NO˙ Scavenged [8]: 48.14%
5 | Cc1c(C)c2c(c(C)c1O)CCC(C)(C(=O)O)O2 (stereo not shown) [Trolox, reference compound] | 18.6 | 38.66 | 53.16 | 66.54 | 94.57% | + (+ represents more than 95%) | + (+ represents more than 95%) | + (+ represents more than 95%) | 18.7 | 4.68 (≈ 18.7 µM) | 17.01 | 28.53 | 40.42 | 53.87 | 75.85 | 94.85 | + (+ represents more than 95%) | + (+ represents more than 95%) | –
